# Literature values, collected in patent US8841297B2, “Phenylimidazole derivative as PDE10A enzyme inhibitor” (H. Lundbeck A/S, priority 2009, dated 2014).
# Key:
# [1] = system: PCP induced hyperactivity; conditions: rats; cited from earlier work
# [2] = system: amphetamine induced hyperactivity; conditions: rats; cited from earlier work
# [3] = system: cataleptic effect of haloperidol; conditions: rats, cited from earlier work
compound,measurement,setting,value
"COc1ccc(Cc2nccc3cc(OC)c(OC)cc23)cc1OC [Papaverine, papaverine]",effect on hyperactivity induced by PCP,[1],reduced hyperactivity
same,reduction of amphetamine induced hyperactivity,[2],insignificant
same,catalepsy on its own,[3]; papaverine alone,did not cause catalepsy on its own
same,effect on the cataleptic effect of haloperidol,[3]; together with haloperidol,potentiated the cataleptic effect
